Experimental data reported in US10112937B2, “P2X7 modulators and methods of use” (Janssen Pharmaceutica NV, priority 2013, dated 2018).
Where a name gives a salt, the structure may show the parent alone.

Target: human P2X7 (Homo sapiens (Human), UniProt Q99572)
Assay: P2X7 antagonism in human PBMCs (IL-1β release after LPS + Bz-ATP, ELISA)
Assay type: cell-based
Details: human PBMCs; for PBMC 10 μM (% control): test compound 10 μM; for PBMC 1 μM (% control): test compound 1 μM
Experimental: P2X7 Antagonism in Human Peripheral Blood Mononuclear Cells (PBMCs) and Human Whole Blood.
Human blood was collected using a blood donor program. PBMCs were isolated from blood using a Ficoll density gradient technique. Briefly, blood was laid on Ficoll solution and centrifuged at RT for 20 minutes at 2000 rpm. The buffy layer (between red blood cells and plasma) was carefully collected by aspiration, washed with PBS and centrifuged again at 1500 rpm for 15 minutes. The resulting cell pellet was washed and plated on 96 well-plates for experiments. For the Human Whole Blood experiments, 150 μl of human blood was platted on 96 well-plates. Lipopolysaccharide (LPS) (30 ng/ml) was added to each well and incubated for 1 hour. Test compounds were then added and incubated for 30 minutes. The P2X7 agonist, 2′(3′)-O-(4-benzoylbenzoyl) adenosine 5′ triphosphate (Bz-ATP) was then added at a final concentration of 0.5 mM (PBMC) or 1 mM (blood). Cells were incubated for an additional 1.5 hours. At that point, supernatant was collected and stored for IL-1β assay using manufacturer's protocol for enzyme-linked immunosorbent assay (ELISA). Data was expressed as percent control, where control is defined as the difference in IL-1β release in LPS+Bz-ATP samples and LPS only samples. Data was plotted as response (% control) versus concentration to generate IC50 values. […] Data are analyzed and graphed on Graphpad Prism 5. For analysis, each concentration point is averaged from triplicate values and the averaged values are plotted on Graphpad Prism.

Sequence of human P2X7 (Q99572 whole entry): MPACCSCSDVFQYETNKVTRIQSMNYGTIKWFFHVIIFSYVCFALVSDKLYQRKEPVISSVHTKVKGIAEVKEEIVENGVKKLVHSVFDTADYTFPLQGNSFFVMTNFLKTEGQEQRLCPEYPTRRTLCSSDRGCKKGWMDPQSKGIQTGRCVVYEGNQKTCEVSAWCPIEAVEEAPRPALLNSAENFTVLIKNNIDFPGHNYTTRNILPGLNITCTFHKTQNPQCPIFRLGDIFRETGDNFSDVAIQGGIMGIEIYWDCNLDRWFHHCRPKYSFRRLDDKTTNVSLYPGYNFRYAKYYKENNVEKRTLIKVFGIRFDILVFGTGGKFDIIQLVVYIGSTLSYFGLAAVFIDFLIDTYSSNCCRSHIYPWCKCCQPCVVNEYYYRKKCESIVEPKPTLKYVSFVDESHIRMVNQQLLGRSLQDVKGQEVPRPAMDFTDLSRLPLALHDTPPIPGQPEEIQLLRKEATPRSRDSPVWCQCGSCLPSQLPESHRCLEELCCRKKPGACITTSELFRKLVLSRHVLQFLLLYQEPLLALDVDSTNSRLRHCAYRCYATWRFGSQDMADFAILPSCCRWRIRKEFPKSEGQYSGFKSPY

Row | PBMC 10 μM (% control) | PBMC 1 μM (% control) | SMILES
1 | −0.3 % control |  | O=C(c1cccc(C(F)(F)F)c1Cl)N1CCc2c(nc(C(F)(F)F)n2-c2ccccc2)C1 [Example 38, (2-Chloro-3-(trifluoromethyl)phenyl)(1-phenyl-2-(trifluoromethyl)-6,7-dihydro-1H-imidazo[4,5-c]pyridin-5(4H)-yl)methanone]
2 |  | 96.0 % control | O=C(c1cccc2c1OC(F)(F)O2)N1CCc2c(ncn2-c2ccccc2)C1 [Example 50, 5-[(2,2-Difluoro-1,3-benzodioxol-4-yl)carbonyl]-1-phenyl-4,5,6,7-tetrahydro-1H-imidazo[4,5-c]pyridine]
3 |  | 8.6 % control | O=C(c1cccc(C(F)(F)F)c1Cl)N1C=Cc2c(ncn2-c2cnccn2)C1 [Example 54, 5-{[2-Chloro-3-(trifluoromethyl)phenyl]carbonyl}-1-pyrazin-2-yl-4,5-dihydro-1H-imidazo[4,5-c]pyridine]
4 | −2.0 % control |  | O=C(c1cccc(Cl)c1Cl)N1CCc2c(nc(C(F)(F)F)n2-c2ccccc2)C1 [Example 58, 5-[(2,3-Dichlorophenyl)carbonyl]-1-phenyl-2-(trifluoromethyl)-4,5,6,7-tetrahydro-1H-imidazo[4,5-c]pyridine]
5 | 8.4 % control |  | O=C(c1cccc(Cl)c1Cl)N1CCc2c(ncn2-c2ccn[nH]2)C1 [Example 60, 5-[(2,3-Dichlorophenyl)carbonyl]-1-(1H-pyrazol-5-yl)-4,5,6,7-tetrahydro-1H-imidazo[4,5-c]pyridine]
6 |  | 5.2 % control | O=C(c1cccc(Cl)c1Cl)N1CCc2c(nnn2-c2ccccc2)C1 [Example 62, 5-[(2,3-Dichlorophenyl)carbonyl]-1-phenyl-4,5,6,7-tetrahydro-1H-[1,2,3]triazolo[4,5-c]pyridine]
7 | 5.8 % control |  | O=C(c1cccc(C(F)(F)F)c1Cl)N1CCc2c(nnn2-c2ncccn2)C1 [Example 65, 5-{[2-Chloro-3-(trifluoromethyl)phenyl]carbonyl}-1-pyrimidin-2-yl-4,5,6,7-tetrahydro-1H-[1,2,3]triazolo[4,5-c]pyridine]
8 | 6.8 % control |  | O=C(c1cccc(C(F)(F)F)c1F)N1CCc2c(nnn2-c2cnccn2)C1 [Example 69, 5-{[2-Fluoro-3-(trifluoromethyl)phenyl]carbonyl}-1-pyrazin-2-yl-4,5,6,7-tetrahydro-1H-[1,2,3]triazolo[4,5-c]pyridine]
9 |  | −5.7 % control | CC1c2nnn(-c3cnccn3)c2C=CN1C(=O)c1cccc(C(F)(F)F)c1Cl (centres unmarked) [Example 72, 5-{[2-Chloro-3-(trifluoromethyl)phenyl]carbonyl}-4-methyl-1-pyrazin-2-yl-4,5-dihydro-1H-[1,2,3]triazolo[4,5-c]pyridine]
10 |  | 4.3 % control | CC1c2nnn(-c3cnccn3)c2CCN1C(=O)c1cccc(C(F)(F)F)c1Cl (centres unmarked) [Example 73, 5-{[2-Chloro-3-(trifluoromethyl)phenyl]carbonyl}-4-methyl-1-pyrazin-2-yl-4,5,6,7-tetrahydro-1H-[1,2,3]triazolo[4,5-c]pyridine]
11 |  | 1.6 % control | O=C(c1cccc(C(F)(F)F)c1Cl)N1C=Cc2c(nnn2-c2cnccn2)C1c1ccccc1 (centres unmarked) [Example 76, 5-{[2-Chloro-3-(trifluoromethyl)phenyl]carbonyl}-4-phenyl-1-pyrazin-2-yl-4,5-dihydro-1H-[1,2,3]triazolo[4,5-c]pyridine]
12 | 4.6 % control |  | CC1c2nnn(-c3ncccn3)c2CCN1C(=O)c1cccc(C(F)(F)F)c1Cl (centres unmarked) [Example 80, 5-{[2-Chloro-3-(trifluoromethyl)phenyl]carbonyl}-4-methyl-1-pyrimidin-2-yl-4,5,6,7-tetrahydro-1H-[1,2,3]triazolo[4,5-c]pyridine]
13 | 5.9 % control |  | CC1c2nnn(-c3ccc(F)cc3)c2C=CN1C(=O)c1cccc(C(F)(F)F)c1Cl (centres unmarked) [Example 81, 5-{[2-Chloro-3-(trifluoromethyl)phenyl]carbonyl}-1-(4-fluorophenyl)-4-methyl-4,5-dihydro-1H-[1,2,3]triazolo[4,5-c]pyridine]
14 | 7.9 % control |  | CC1c2nnn(-c3ncccc3F)c2C=CN1C(=O)c1cccc(C(F)(F)F)c1Cl (centres unmarked) [Example 82, 5-{[2-Chloro-3-(trifluoromethyl)phenyl]carbonyl}-1-(3-fluoropyridin-2-yl)-4-methyl-4,5-dihydro-1H-[1,2,3]triazolo[4,5-c]pyridine]
15 | 4.5 % control |  | CC1c2nnn(-c3ccc(F)cc3)c2CCN1C(=O)c1cccc(C(F)(F)F)c1Cl (centres unmarked) [Example 83, 5-{[2-Chloro-3-(trifluoromethyl)phenyl]carbonyl}-1-(4-fluorophenyl)-4-methyl-4,5,6,7-tetrahydro-1H-[1,2,3]triazolo[4,5-c]pyridine]
16 | 8.5 % control |  | CC1c2nnn(-c3ncccc3F)c2CCN1C(=O)c1cccc(C(F)(F)F)c1Cl (centres unmarked) [Example 84, 5-{[2-Chloro-3-(trifluoromethyl)phenyl]carbonyl}-1-(3-fluoropyridin-2-yl)-4-methyl-4,5,6,7-tetrahydro-1H-[1,2,3]triazolo[4,5-c]pyridine]
17 | 13.0 % control |  | CC1c2nnn(-c3cc[nH]n3)c2C=CN1C(=O)c1cccc(C(F)(F)F)c1Cl (centres unmarked) [Example 86, 5-{[2-Chloro-3-(trifluoromethyl)phenyl]carbonyl}-4-methyl-1-(1H-pyrazol-3-yl)-4,5-dihydro-1H-[1,2,3]triazolo[4,5-c]pyridine]
18 |  | −1.5 % control | O=C(c1cccc(C(F)(F)F)c1Cl)N1C=Cc2c(nnn2-c2cnccn2)C1 [Example 89, 5-{[2-Chloro-3-(trifluoromethyl)phenyl]carbonyl}-1-pyrazin-2-yl-4,5-dihydro-1H-[1,2,3]triazolo[4,5-c]pyridine]
19 |  | 6.1 % control | O=C(c1cccc(C(F)(F)F)c1Cl)N1CCc2c(nnn2-c2cnccn2)C1 [Example 91, 5-{[2-Chloro-3-(trifluoromethyl)phenyl]carbonyl}-1-pyrazin-2-yl-4,5,6,7-tetrahydro-1H-[1,2,3]triazolo[4,5-c]pyridine]
20 |  | 2.7 % control | Cn1nc2c(c1-c1ccccn1)CCN(C(=O)c1cccc(C(F)(F)F)c1Cl)C2 [Example 92, 6-{[2-Chloro-3-(trifluoromethyl)phenyl]carbonyl}-2-methyl-3-pyridin-2-yl-4,5,6,7-tetrahydro-2H-pyrazolo[3,4-c]pyridine]
21 |  | 9.0 % control | O=C(c1cccc(C(F)(F)F)c1Cl)N1CCc2c(-c3ccccn3)n[nH]c2C1 [Example 93, 6-{[2-Chloro-3-(trifluoromethyl)phenyl]carbonyl}-3-pyridin-2-yl-4,5,6,7-tetrahydro-2H-pyrazolo[3,4-c]pyridine-TFA salt]
22 | 3.6 % control |  | O=C(c1cccc(C(F)(F)F)c1Cl)N1CCc2c(-c3cccnc3)n[nH]c2C1 [Example 96, 6-{[2-Chloro-3-(trifluoromethyl)phenyl]carbonyl}-3-pyridin-3-yl-4,5,6,7-tetrahydro-2H-pyrazolo[3,4-c]pyridine]
23 |  | 7.0 % control | O=C(c1cccc(C(F)(F)F)c1Cl)N1CCc2c(-c3ccccc3)n[nH]c2C1 [Example 99, (2-Chloro-3-(trifluoromethyl)phenyl)(3-phenyl-4,5-dihydro-1H-pyrazolo[3,4-c]pyridin-6(7H)-yl)methanone]
